Data on seven molecules can be found in patent US20030078274A1, “Method of reducing neuronal injury or apoptosis” (priority 1999, published 2003).

In one experiment the test system is p38. The experiment can be described thus: p38 phosphorylation/activation in retina after axotomy. The format is in vivo, Long-Evans rats. The note with it: MK801 intravitreal after axotomy. As for the experimental part:
(§1) One day after axotomy, activated (di-phosphorylated) p38 was visualized by immunocytochemistry in the RGC layer, but not in control retinas. By Western blotting, phosphorylated p38 was first detected 12 hours after axotomy and reached a maximum at 24 hours before decreasing. SB 203580 was administered intravitreally at the time of axotomy, and repeated at 5 days and 10 days.
(§2) Drug application. Intravitreal injections were carried out using a 33-gauge needle attached to a 25 μl syringe following pupil dilation with 1% atropine sulfate. The tip of the needle was inserted through the dorsal limbus of the eye under stereomicroscopic visualization. Injections were completed over a period of 1 min. Intravitreal injections of SB 203580 (Calbiochem, San Diego, Calif.), MK801 (Research Biochemicals International, Natick, Mass.) or control solutions (as an equal volume of saline diluent) were performed on operated eyes immediately after axotomy, and repeated 5 and 10 days post axotomy.
Immunohistochemistry. After enucleation, the eyes were immersed in fixative composed of 4% paraformaldehyde in phosphate-buffered saline (PBS; pH 7.4) at 4° C. Ten minutes later, the eyes were hemisected in the fixative, and the anterior segment, lens and vitreous body were discarded. The remaining posterior eyecup was kept in fresh fixative solution overnight at 4° C. The eyecup was then embedded in paraffin. […]

For experiment [1], the system named is retinal ganglion cells (RGCs). The experiment can be described thus: Optic nerve axotomy model of glaucoma: RGC survival in vivo. The arrangement: species or system Long-Evans rats. The note with it: MK801 intravitreal; 14 days post axotomy.
Description: As a model for studying treatment of glaucoma, damaged (axotomized) retinal ganglion cells were employed. Specifically, transection of the optic nerve close to the cell body causes apoptotic death of retinal ganglion cells (RGCs), similar to that found in glaucoma. […] Three days later, the left optic nerve was intraorbitally transected 1 mm from the globe. One day after axotomy, no remarkable change in the fluorescence pattern of RGCs was seen compared to that of controls. RGC density, as assessed by the number of fluorescently-labeled cells, began to decline between 4 and 7 days post axotomy. By 14 days, a substantial number of fluorescently-labeled RGCs appeared to have been lost. Morphologically, in whole-mounted retinas stained with cresyl violet, ganglion cell layer (GCL) of unlesioned control retinas manifest no apoptotic profiles or pyknotic nuclei. In contrast, by 10 days after axotomy, multiple degenerating cell bodies with pyknotic nuclei were apparent in the GCL, and the cell density in this layer appeared to be greatly diminished. When hydroxystilbamidine fluorescence in the GCL was quantified, in unlesioned control retinas the mean RGC density was 2533±104 cells/mm^2 (mean±SD). Within 14 days of axotomy, the mean RGC density decreased to 348±107 (14% of control).
as §1
Retrograde labeling of retinal ganglion cells. Adult male Long-Evans rats weighing 200 to 250 g were obtained from a local breeder and, for all experimental manipulations, were anesthetized with 1-2% isoflurane and 70% N2O. RGCs were retrogradely labeled with hydroxystilbamidine (Molecular Probes, Eugene, Oreg., also known as Fluoro-Gold™) to allow accurate counting of cell bodies as described in Vorwerk et al., Invest. Ophthalmol. Vis. Sci. 40:813-816. Rats were anesthetized and placed in a small stereotactic instrument. The skull was exposed and kept dry. The bregma was identified and marked, and a small window was drilled above the right hemisphere, leaving the dura intact.
Axotomy. Optic nerve axotomy was performed on the left eye 4 days after retrograde labeling. After incision of the dorsolateral conjunctiva, the lateral extraocular muscle was transected, and the optic nerve was exposed under a stereoscopic microscope. The optic nerve was then transected at a distance of about 1 mm from the eye bulb. During the operation, care was taken to avoid damage to the retinal blood supply.
as §2
Quantification of axotomized RGC survival and histology. […]

Experiment [2] relates to neurons in rat cerebrocortical cultures (gp120-induced apoptosis). The experiment can be described thus: gp120-induced neuronal apoptosis in rat cerebrocortical cultures. Type of experiment: cell-based, Sprague-Dawley rats. Conditions: for effect on neuronal apoptosis induced by gp120: gp120 200 pM, 24 h. As for the experimental part: The model used in the assays described below, i.e., rat cerebrocortical cultures, was prepared from embryos of Sprague-Dawley rats at day 15 to 17 of gestation. See Lei et al., Neuron 8:1087-1099 (1992) and Lipton et al., Nature 364:626-632 (1993). Cultures were used for experiments after 17 to 24 days in culture. […] Prior to some experiments, macrophages/microglia or neurons were depleted from the cultures by exposure to 7.5 mM L-leucine methyl ester or 2 mM N-methyl-D-aspartate (NMDA), respectively. See Lipton, NeuroReport 3:913-915 (1992). […] In some experiments, the Griess reaction was used to measure nitrite levels in the culture medium as an index of nitric oxide (NO) release. See Chao et al., Glia 16:276-284 (1996).
Cultures were transferred into Earle's Balanced Salt Solution (EBSS) and incubated for 24 hours with gp120, chemokines, Tuftsin fragment 1-3, i.e., Thr-Lys-Pro (TKP), p38 MAPK inhibitor SB 203580 (i.e., 4-(4-fluorophenyl)-2-(4-methylsulfinylphenyl)-5-(4-pyridyl)imidazole, Calbiochem, San Diego, Calif.), or combinations thereof. Chemokines or TKP were applied for 5 minutes and SB 203580 for 15 minutes prior to gp120 exposure.
TKP was obtained from Sigma (St. Louis, Mo.). Recombinant human MIP-1β, SDF-1α, SDF-1β, and recombinant rat RANTES were purchased from R&D systems ([…].) and Endogen (Woburn, Mass.), respectively. HIV-1 envelope glycoprotein gp120 from the strain SF2 was obtained from the NIH AIDS Research and Reference Reagent Program, Division of AIDS, NIAID, NIH. See Scandella et al., AIDS Res. Hum. Retroviruses 9:1233-1244 (1993). Additional gp120s from HIV-1 strains IIIB and RF2 were obtained from Genetech and the National Cancer Institute, respectively. TNFα, IFNγ, and IL-1β were from Genzyme (Cambridge, Mass.), Gibco BRL (Grand Island, N.Y.) and Endogen (Woburn, Mass.), respectively.
Neuronal apoptosis in the above-described assays was assessed using a variety of techniques, e.g., staining of permeabilized cells with propidium iodide to determine apoptotic morphology, and a neuron-specific antibody (against NeuN or MAP-2) to identify cell type. In brief, cells were fixed for 5 minutes with ice-cold acetone at −20° C. and, after three washes in PBS, for 4 minutes with 2% (w/v) paraformaldehyde solution in PBS at room temperature (RT). Acetone-paraformaldehyde-fixed cells were permeabilized using 0.2% Tween 20 in PBS (PBST), and non-specific binding sites were blocked by incubation for 1 hour with a 10% solution of heat-inactivated goat serum in PBST. To specifically stain neurons, cells were then incubated for 4 hours at RT or overnight at 4° C. with 1:500 dilutions of anti-MAP-2 (Sigma) or anti-NeuN monoclonal antibody (mAb; Chemicon, Temecula, Calif.). Their respective non-specific isotype antibodies served as controls. After three washes, the cells were incubated in a secondary polyclonal antibody (pAb) conjugated either to fluorescein isothiocyanate (FITC) or to horseradish peroxidase (HRP). In the case of HRP-coupled pAb, diaminobenzidine (DAB) served as the color substrate developed by incubation in a mixture of 1 mg/ml DAB and 0.8% H2O2 at a ratio of 3:1. Cellular nuclei were subsequently stained with […] propidium iodide for 5 minutes in the dark, and then coverslips were mounted on glass slides. Experiments were replicated at least 3 times with triplicate values in each experiment. Statistical significance was judged by an analysis of variance (ANOVA) followed by a Scheffé or Bonferroni/Dunn post hoc test.

Experiment [3] concerns cytokine-activated astrocytes. The experiment can be described thus: NO release (nitrite, Griess reaction) by cytokine-activated astrocytes. The note with it: in the absence of macrophages/microglia. The format is cell-based, Sprague-Dawley rats. As for the experimental part: (§3) The model used in the assays described below, i.e., rat cerebrocortical cultures, was prepared from embryos of Sprague-Dawley rats at day 15 to 17 of gestation. See Lei et al., Neuron 8:1087-1099 (1992) and Lipton et al., Nature 364:626-632 (1993). Cultures were used for experiments after 17 to 24 days in culture. These cultures contain neurons, astrocytes, and macrophages/microglia, as determined with specific immunolabeling. Prior to some experiments, macrophages/microglia or neurons were depleted from the cultures by exposure to 7.5 mM L-leucine methyl ester or 2 mM N-methyl-D-aspartate (NMDA), respectively. See Lipton, NeuroReport 3:913-915 (1992). Absence of macrophages/microglia or neurons in these cultures was confirmed immunocytochemically, using antibodies to ED-1 and microtubule-associated protein-2 (MAP-2), respectively. In some experiments, the Griess reaction was used to measure nitrite levels in the culture medium as an index of nitric oxide (NO) release. See Chao et al., Glia 16:276-284 (1996).

Experiment [4] concerns neurons in rat cerebrocortical cultures (SDF-1-induced apoptosis). The experiment can be described thus: SDF-1-induced neuronal apoptosis in rat cerebrocortical cultures. Type of experiment: cell-based, Sprague-Dawley rats. The note with it: TKP. As for the experimental part: as §3, with “(1996). […]” for “(1996).”
(§4) Neuronal apoptosis in the above-described assays was assessed using a variety of techniques, e.g., staining of permeabilized cells with propidium iodide to determine apoptotic morphology, and a neuron-specific antibody (against NeuN or MAP-2) to identify cell type. […]

Experiment [5] relates to neurons (NMDA-induced apoptosis). As to the kind of experiment: NMDA-induced neuronal apoptosis in cerebrocortical cultures. Type of experiment: cell-based, Sprague-Dawley rats. As for the experimental part: as §3, §4
In experiment [6] the test system is neurons in rat cerebrocortical cultures. The experiment can be described thus: Neuronal apoptosis assay, chemokine alone versus control. Type of experiment: cell-based, Sprague-Dawley rats. The note with it: α-chemokine 20-50 nM, 24 h. As for the experimental part: as §3, with “(1996). […]” for “(1996).”
as §4

The mark [7] stands for this setting: β-chemokine at 20 nM applied 5 min before gp120.

For `C[C@]12N[C@H](Cc3ccccc31)c1ccccc12` [MK801], the p38 phosphorylation/activation result in the experiment on p38 is “inhibited p38 phosphorylation/activation in a dose-dependent manner”. Also, in experiment [1], the “number of surviving RGCs” value is on record as “increased the number of surviving RGCs”.
Regarding `S=C(S)N1CCCC1` [PDTC, pyrrolidine dithiocarbamate], the “effect on gp120SF2-induced neuronal apoptosis” value in experiment [2] (PDTC 5 μM) was “only SB 203580 substantially attenuated”.
Turning to Thr-Lys-Pro [TKP], the “effect on gp120-induced neuronal apoptosis” value in experiment [2] (TKP 50 μM, applied 5 min before gp120) is given as “protected neurons from gp120-induced apoptosis”. The “effect on NO release by cytokine-activated astrocytes” value in experiment [3] was “did not inhibit NO release”. For the same molecule, the “effect on SDF-1β-induced neuronal apoptosis” value in experiment [4] is recorded as “not abrogated”. Besides, the “effect on NMDA-induced neuronal apoptosis” value in experiment [5] is “did not interfere”.
As to RANTES, the “effect on neuronal apoptosis induced by gp120” value (from here on “effect … by gp120”) in experiment [2] (setting [7]) is “abrogated”.
With SDF-1α, the “effect … by gp120” value in experiment [2] (α-chemokine at 20-50 nM) is on record as “did not reduce neuronal damage or apoptosis”. Also, the “increase in neuronal apoptosis compared to control” value in experiment [6] is recorded as “approximately 2 fold”.
For `COc1cccc(-c2cc(=O)c3ccccc3o2)c1N` [PD 98059, 2′-amino-3′-methoxyflavone], the “effect on gp120SF2-induced neuronal apoptosis” value in experiment [2] (PD 98059 2 μM) is reported as “only SB 203580 substantially attenuated”.

B1: MIP-1β: recombinant human MIP-1β, β-chemokine (protein, UniProt P13236 24-92, looked up)
C-C motif chemokine 4: APMGSDPPTACCFSYTARKLPRNFVVDYYETSSLCSQPAVVFQTKRSKQVCADPSESWVQEYVYDLELN
Turning to B1, the “effect … by gp120” value in experiment [2] (setting [7]) is listed as “abrogated”.
